Experimental findings from US20020198189A1, “New use” (priority 2000, published 2002) are described below.

The molecule `CCCC1c2nc[nH]c2CCN1C(=O)OCc1ccccc1.O=C(O)C(F)(F)F` (stereo not shown) registered a melting point of 166 to 167 °C.
